Data: PubChem BioAssay AID1053200 (The Scripps Research Institute Molecular Screening Center, 2014)
The source made the active and inactive calls.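 How the source made its calls: active means inhibition at or above 50% when tested at 10 µM; inactive means inhibition below 50% at 10 µM.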

Biological target: Methionine--tRNA ligase, mitochondrial (Homo sapiens) (UniProt Q96GW9)
Test: human mitochondrial MetRS inhibition, late-stage follow-up, selectivity assay for T. brucei MetRS inhibitor project, biochemical, radioactivity, round 2 (AID 1053200)
Conditions: recombinant human mitochondrial MetRS, [3H]Met aminoacylation, stronger effect = higher value

Chain of Methionine--tRNA ligase, mitochondrial (Homo sapiens) (Q96GW9 whole entry, looked up): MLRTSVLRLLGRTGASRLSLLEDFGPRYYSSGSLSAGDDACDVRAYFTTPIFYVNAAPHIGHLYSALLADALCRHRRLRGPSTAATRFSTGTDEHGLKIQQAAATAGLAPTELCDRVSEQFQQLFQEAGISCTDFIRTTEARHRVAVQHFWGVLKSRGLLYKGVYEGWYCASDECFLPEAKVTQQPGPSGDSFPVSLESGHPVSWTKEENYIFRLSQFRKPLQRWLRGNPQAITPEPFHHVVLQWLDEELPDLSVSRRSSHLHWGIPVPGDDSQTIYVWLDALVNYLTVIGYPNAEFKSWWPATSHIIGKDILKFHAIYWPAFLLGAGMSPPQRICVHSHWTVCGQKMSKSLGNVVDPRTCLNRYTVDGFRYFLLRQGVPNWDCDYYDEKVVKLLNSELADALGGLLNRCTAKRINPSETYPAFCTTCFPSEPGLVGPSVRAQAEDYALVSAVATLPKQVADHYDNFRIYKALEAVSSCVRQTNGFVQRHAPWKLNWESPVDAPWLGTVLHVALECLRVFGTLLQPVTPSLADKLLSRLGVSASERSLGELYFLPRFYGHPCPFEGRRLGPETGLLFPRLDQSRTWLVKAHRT

| Structure (SMILES) | inhibition (at 10 µM) | inhibition (inhibition, at 1 µM) |
| --- | --- | --- |
| CCN(CC)C(=O)C(=O)c1cn(CC(=O)Nc2cc(Br)cc(C(F)(F)F)c2)c2ccccc12 | 12.8% (inactive) | -17.3% |
| CCN(CC)C(=O)C(=O)c1cn(CC(=O)Nc2cc(C(F)(F)F)cc(C(F)(F)F)c2)c2ccccc12 | 9.77% (inactive) | -3.97% |
| CCN(CC)C(=O)C(=O)c1cn(CC(=O)Nc2cc(Cl)cc(C(F)(F)F)c2)c2ccccc12 | 17.4% (inactive) | -6.78% |
| CCN(CC)C(=O)C(=O)c1cn(CC(=O)Nc2cccc(C(F)(F)F)c2)c2cc(OC)ccc12 | -1.37% (inactive) | -8.82% |

The next lines start with the values.

| inhibition (at 10 µM) | inhibition (inhibition, at 1 µM) | Structure (SMILES) |
| --- | --- | --- |
| 20.9% (inactive) | -1.02% | CCN(CC)C(=O)C(=O)c1cn(CC(=O)Nc2cc(C)cc(C(F)(F)F)c2)c2ccccc12 |
| 21.1% (inactive) | -2.76% | CCN(CC)C(=O)C(=O)c1cn(CC(=O)Nc2cc(Oc3ccccc3)cc(C(F)(F)F)c2)c2ccccc12 |
